According to patent US8952024B2, “Herbicidal pyrimidone derivatives” (E I du Pont de Nemours and Company, priority 2009, dated 2015):

Key:
Type in all cases: in vivo
[1] = tested on: goosegrass (Eleusine indica); assay: Test B pre-/postemergence plant response
Procedure, shortened: (§1)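 Response scores were assigned visually after 13 to 15 days in a greenhouse, comparing treated pots with controls on a 0–100 scale where 100 denotes complete control. Preemergence treatments went onto freshly seeded loam/sand soil; postemergence treatments onto plants 2 to 18 cm tall.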

[2] = tested on: yellow nutsedge (Cyperus esculentus); assay: Test B pre-/postemergence plant response
Procedure, shortened: as §1

[3] = tested on: Italian ryegrass (Lolium multiflorum); assay: Test B pre-/postemergence plant response
Procedure, shortened: as §1

[4] = tested on: wheat (Triticum aestivum); assay: Test B pre-/postemergence plant response
Procedure, shortened: as §1

[5] = tested on: morningglory (Ipomoea coccinea); assay: Test B pre-/postemergence plant response
Procedure, shortened: as §1

[6] = tested on: blackgrass (Alopecurus myosuroides); assay: Test B pre-/postemergence plant response
Procedure, shortened: as §1

[7] = tested on: downy bromegrass (Bromus tectorum); assay: Test B pre-/postemergence plant response
Procedure, shortened: as §1

[8] = tested on: Surinam grass (Brachiaria decumbens); assay: Test B pre-/postemergence plant response
Procedure, shortened: as §1

[9] = tested on: woolly cupgrass (Eriochloa villosa); assay: Test B pre-/postemergence plant response
Procedure, shortened: as §1

[10] = tested on: velvetleaf (Abutilon theophrasti); assay: Test B pre-/postemergence plant response
Procedure, shortened: as §1

[11] = tested on: large crabgrass (Digitaria sanguinalis); assay: Test B pre-/postemergence plant response
Procedure, shortened: as §1

[12] = tested on: barnyardgrass (Echinochloa crus-galli); assay: Test A pre-/postemergence plant response
Procedure, shortened: (§2)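 Both pre- and postemergence treatments are applied simultaneously, using chemicals formulated in a non-phytotoxic solvent mixture with surfactant. Postemergence plants are 2–10 cm high with one to two leaves. After approximately ten days in a greenhouse, injury is scored visually from 0 (none) to 100 (complete control) relative to untreated plants.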

[13] = tested on: pigweed (Amaranthus retroflexus); assay: Test A pre-/postemergence plant response
Procedure, shortened: as §2

[14] = 31 g ai/ha, postemergence, scale 0 to 100, 0 is no effect, 100 is complete control
[15] = 250 g ai/ha, Preemergence, 0 to 100 scale
[16] = Postemergence, 62 g ai/ha, scale 0 (no effect) to 100 (complete control), 13 to 15 days
[17] = Postemergence, 125 g ai/ha, visual rating after 13 to 15 days, scale 0 (no effect) to 100 (complete control)
[18] = Postemergence, 250 g ai/ha, scale 0 to 100 (0 no effect, 100 complete control)
[19] = Preemergence, 31 g ai/ha, scale 0 to 100 (0 no effect, 100 complete control)
[20] = Preemergence, 62 g ai/ha, scale 0 to 100, 0 no effect, 100 complete control
[21] = Preemergence, 125 g ai/ha, scale 0 to 100, 0 no effect, 100 complete control
[22] = Postemergence, 125 g ai/ha, visual injury, 0 to 100 scale (0 no effect, 100 complete control), approx. ten days
[23] = Postemergence, 500 g ai/ha, 0 to 100 scale, 0 = no effect, 100 = complete control, approx. ten days
[24] = Preemergence, 125 g ai/ha, 0 to 100 scale, 0 = no effect, 100 = complete control
[25] = Preemergence, 500 g ai/ha, visual injury, 0 to 100 scale (0 no effect, 100 complete control), approx. ten days

## CCCCc1ncc(C(=O)C2=C(O)CCCC2=O)c(=O)n1-c1ccccc1C [Compound 62]
[1]; [14]
  Plant response rating, Goosegrass: 65
[1]; [15]
  Plant response rating, Goosegrass: 98
[1]; [16]
  Plant response rating, Goosegrass: 65
[1]; [17]
  Plant response rating, Goosegrass: 65
[1]; [18]
  Plant response rating, Goosegrass: 75
[1]; [19]
  Plant response rating, Goosegrass: 15
[1]; [20]
  Plant response rating, Goosegrass: 95
[1]; [21]
  Plant response rating, Goosegrass: 98
[2]; [14]
  Plant response rating, Nutsedge, Yellow: 15
[2]; [16]
  Plant response rating, Nutsedge, Yellow: 25
[2]; [17]
  Plant response rating, Nutsedge, Yellow: 35
[2]; [18]
  Plant response rating, Nutsedge, Yellow: 55
[2]; [19]
  Plant response rating, Nutsedge, Yellow: 15
[2]; [20]
  Plant response rating, Nutsedge, Yellow: 25
[2]; [21]
  Plant response rating, Nutsedge, Yellow: 45
[3]; [14]
  Plant response rating, Ryegrass, Italian: 0
[3]; [16]
  Plant response rating, Ryegrass, Italian: 5
[3]; [17]
  Plant response rating, Ryegrass, Italian: 50
[3]; [18]
  Plant response rating, Ryegrass, Italian: 50
[3]; [19]
  Plant response rating, Ryegrass, Italian: 0
[3]; [20]
  Plant response rating, Ryegrass, Italian: 0
[3]; [21]
  Plant response rating, Ryegrass, Italian: 0
[4]; [14]
  Plant response rating, Wheat: 0
[4]; [16]
  Plant response rating, Wheat: 0
[4]; [17]
  Plant response rating, Wheat: 5
[4]; [18]
  Plant response rating, Wheat: 30
[4]; [19]
  Plant response rating, Wheat: 0
[4]; [20]
  Plant response rating, Wheat: 0
[4]; [21]
  Plant response rating, Wheat: 0
[5]; [16]
  Plant response rating, Morningglory: 15
[5]; [17]
  Plant response rating, Morningglory: 75
[5]; [18]
  Plant response rating, Morningglory: 75
[5]; [19]
  Plant response rating, Morningglory: 0
[5]; [20]
  Plant response rating, Morningglory: 0
[5]; [21]
  Plant response rating, Morningglory: 0
[6]; [14]
  Plant response rating, Blackgrass: 15
[6]; [15]
  Plant response rating, Blackgrass: 0
[6]; [16]
  Plant response rating, Blackgrass: 30
[6]; [17]
  Plant response rating, Blackgrass: 30
[6]; [18]
  Plant response rating, Blackgrass: 50
[6]; [19]
  Plant response rating, Blackgrass: 0
[6]; [20]
  Plant response rating, Blackgrass: 0
[6]; [21]
  Plant response rating, Blackgrass: 0
[7]; [14]
  Plant response rating, Bromegrass, Downy: 30
[7]; [15]
  Plant response rating, Bromegrass, Downy: 0
[7]; [16]
  Plant response rating, Bromegrass, Downy: 45
[7]; [17]
  Plant response rating, Bromegrass, Downy: 50
[7]; [18]
  Plant response rating, Bromegrass, Downy: 50
[7]; [19]
  Plant response rating, Bromegrass, Downy: 0
[7]; [20]
  Plant response rating, Bromegrass, Downy: 0
[7]; [21]
  Plant response rating, Bromegrass, Downy: 0
[8]; [14]
  Plant response rating, Surinam Grass: 20
[8]; [16]
  Plant response rating, Surinam Grass: 45
[8]; [17]
  Plant response rating, Surinam Grass: 65
[8]; [18]
  Plant response rating, Surinam Grass: 70
[8]; [19]
  Plant response rating, Surinam Grass: 5
[8]; [20]
  Plant response rating, Surinam Grass: 20
[8]; [21]
  Plant response rating, Surinam Grass: 25
[9]; [14]
  Plant response rating, Cupgrass, Woolly: 55
[9]; [15]
  Plant response rating, Cupgrass, Woolly: 10
[9]; [16]
  Plant response rating, Cupgrass, Woolly: 55
[9]; [17]
  Plant response rating, Cupgrass, Woolly: 60
[9]; [18]
  Plant response rating, Cupgrass, Woolly: 65
[9]; [19]
  Plant response rating, Cupgrass, Woolly: 0
[9]; [20]
  Plant response rating, Cupgrass, Woolly: 0
[9]; [21]
  Plant response rating, Cupgrass, Woolly: 5
[10]; [14]
  Plant response rating, Velvetleaf: 85
[10]; [16]
  Plant response rating, Velvetleaf: 95
[10]; [17]
  Plant response rating, Velvetleaf: 95
[10]; [18]
  Plant response rating, Velvetleaf: 100
[10]; [19]
  Plant response rating, Velvetleaf: 75
[10]; [20]
  Plant response rating, Velvetleaf: 75
[10]; [21]
  Plant response rating, Velvetleaf: 95
[11]; [14]
  Plant response rating, Crabgrass, Large: 55
[11]; [15]
  Plant response rating, Crabgrass, Large: 98
[11]; [16]
  Plant response rating, Crabgrass, Large: 75
[11]; [17]
  Plant response rating, Crabgrass, Large: 80
[11]; [18]
  Plant response rating, Crabgrass, Large: 85
[11]; [19]
  Plant response rating, Crabgrass, Large: 0
[11]; [20]
  Plant response rating, Crabgrass, Large: 50
[11]; [21]
  Plant response rating, Crabgrass, Large: 80
[12]; [22]
  Barnyardgrass plant response rating: 80
[12]; [23]
  Plant response rating, Barnyardgrass: 90
[12]; [24]
  Plant response rating, Barnyardgrass: 10
[12]; [25]
  Plant response rating, Barnyardgrass: 90
[13]; [22]
  Pigweed plant response rating: 90
[13]; [23]
  Plant response rating, Pigweed: 100
[13]; [24]
  Plant response rating, Pigweed: 80
[13]; [25]
  Plant response rating, Pigweed: 100
